The values that follow come from patent US6653081B2, “Methods for monitoring antiretroviral therapy and guiding therapeutic decision in the treatment of HIV/AIDS” (ViroLogic, Inc., priority 2000, dated 2003).

The test system of assay [1] is RTV-1033-3/106V/189V/227F. Description: Phenotypic susceptibility assay, RTV-1033-3/106V/189V/227F. It counts as cell-based, HIV. As to conditions: RTV-1033-3 with V106A, V189L and F227L reverted. The text has this:
(§1) The resistance test vectors containing a functional luciferase gene cassette were constructed and host cells were transfected with the resistance test vector DNA. The resistant test vectors contained patient-derived reverse transcriptase and protease sequences that were either susceptible or resistant to the antiretroviral agents, such as nucleoside reverse transcriptase inhibitors, (NRTIs) non-nucleoside reverse transcriptase inhibitors […] protease inhibitors. The resistance test vector viral particles produced by transfecting the resistance test vector DNA into host cells, either in the presence or absence of PRIs, were used to infect target host cells grown either in the absence of NRTIs or NNRTIs, or in the presence of increasing concentrations of the drug. The amount of luciferase activity produced in infected target host cells in the presence of varying concentrations of drug was compared to the amount of luciferase produced in infected target host cells in the absence of drug. “Drug resistance” was measured as the amount of drug required to inhibit by 50% the luciferase activity detected in the absence of drug (inhibitory concentration 50%, IC50). The IC50 values were determined by plotting percent drug inhibition vs. log10 drug concentration. Stimulation of viral replication was measured as the percent increase in luciferase activity detected when infection occurs in the presence of drug as compared to in the absence of drug.
(§2) Host cells were seeded in 10-cm-diameter dishes and were transfected several days after plating with resistance test vector plasmid DNA and the envelope expression vector. Transfections were performed using a calcium-phosphate precipitation procedure. The cell culture media containing the DNA precipitate was replaced with fresh medium, from one to 24 hours, after transfection. Cell culture media containing resistance test vector viral particles was harvested one to four days after transfection and was passed through a […] filter before being used to infect target host cells, or being stored at −80° C. HIV capsid protein (p24) levels in the harvested cell culture media were determined by an EIA method as described by the manufacturer (SAIC; Frederick, Md.). Before infection, target cells (293 and 293/T) were plated in cell culture media. Control infections were performed using cell culture media from mock transfections (no DNA) or transfections containing the resistance test vector plasmid DNA without the envelope expression plasmid. One to three or more days after infection, the media was removed and cell lysis buffer (Promega) was added to each well. Cell lysates were assayed for luciferase activity (FIG. 3). The inhibitory effect of the drug was determined using the following equation:
(§3) % luciferase inhibition=1−(RLUluc[drug]÷RLUluc)×100
(§4) where RLUluc [drug] is the Relative Light Unit of luciferase activity in infected cells in the presence of drug, and RLUluc is the Relative Light Unit of luciferase activity in infected cells in the absence of drug. IC50values were obtained from the sigmoidal curves that were generated from the data by plotting the percent inhibition of luciferase activity vs. the log10 drug concentration. The percent luciferase stimulation is the negative of the % inhibition calculated using the formula above.
A resistance test vector containing all of the mutations present in RTV-1033-3 except for V106A, V189L and F227L (RTV-1033-3/106V/189V/227F) was constructed and tested using the phenotypic assay described earlier. The results were compared to those determined using the parent RTV-1033-3. We determined the pattern of phenotypic susceptibility to the NNRTIs, delavirdine, nevirapine and efavirenz, in the reverted vector, RTV-1033-3/106V/189V/227F.

For assay [2], the system named is RTV-010829/245V-297E. In words: Phenotypic susceptibility assay, RTV-010829/245V-297E. As to conditions: for drug-dependent stimulation of viral replication: RTV-010829 with V245E to E297K reverted; for reductions in susceptibility compared to wild type control RTV: RTV-010829 with V245E, I270M, V276I, R277K, V292I, V293I, E297K reverted. It is filed as cell-based, HIV.
Text: as §1, §2, §3, §4
A resistance test vector containing all of the mutations present in RTV-010829 except for the V245E mutation (RTV-010829/245V) was constructed and tested using the phenotypic assay described earlier. The results were compared to those determined using the parent RTV-010829. We determined the pattern of phenotypic susceptibility to the NNRTIs, delavirdine, nevirapine and efavirenz, in the reverted vector RTV-010829/245V. […] A resistance test vector containing all of the mutations present in RTV-010829 except for the I270M (RTV-010829/270I) was constructed and tested using the phenotypic assay described earlier. […]

The subject of assay [3] is RTV-I135T/V245E. In words: Phenotypic susceptibility assay, RTV-I135T/V245E. As to conditions: site-directed I135T + V245E. It is filed as cell-based, HIV-1.
Text: as §1, §2, §3, §4
A resistance test vector containing two mutations, I135T and V245E (RTV-I135T/V245E) was constructed and tested in the phenotypic assay described earlier. The results were compared to those determined using a genetically defined resistance test vector that was wild type at positions 135 and 245. We determined the pattern of phenotypic susceptibility to the NNRTIs, delavirdine, nevirapine and efavirenz, in RTV-I135T/V245E.

Assay [4] relates to RTV-1033-3. Description: Phenotypic susceptibility assay, RTV-1033-3. It is filed as cell-based, HIV. As to conditions: single clone from the RTV-1033 pool.
Text: as §1, §2, §3, §4
A single clone (RTV-1033-3) was obtained from the patient-derived RTV pool that had mutations and phenotypic patterns of NNRTI susceptibility and drug-dependent stimulation of viral replication characteristic of the RTV-1033 pool. The RTV-1033-3 had the following mutations present in the revere transcriptase: V35I, D67N, T69D, K70R, V106A, D123G, V189L, T200A, I202T, H208Y, R211K, T215F, D218E, K219Q, H221Y, L228H, L283I, R284K, T286A, V293I and E297K.

The subject of assay [5] is RTV-1046 and RTV-887. In words: Phenotypic susceptibility assay, RTV-1046 and RTV-887. As to conditions: patient ARG-014, weeks 8 and 16; Y181C and M230L present. It counts as cell-based, HIV. From the text:
The resistance test vectors containing a functional luciferase gene cassette were constructed and host cells were transfected with the resistance test vector DNA. The resistant test vectors contained patient-derived reverse transcriptase and protease sequences that were either susceptible or resistant to the antiretroviral agents, such as nucleoside reverse transcriptase inhibitors, (NRTIs) non-nucleoside reverse transcriptase inhibitors […] protease inhibitors. The resistance test vector viral particles produced by transfecting the resistance test vector DNA into host cells, either in the presence or absence of PRIs, were used to infect target host cells grown either in the absence of NRTIs or NNRTIs, or in the presence of increasing concentrations of the drug. The amount of luciferase activity produced in infected target host cells in the presence of varying concentrations of drug was compared to the amount of luciferase produced in infected target host cells in the absence of drug. […] The IC50 values were determined by plotting percent drug inhibition vs. log10 drug concentration. Stimulation of viral replication was measured as the percent increase in luciferase activity detected when infection occurs in the presence of drug as compared to in the absence of drug.
Host cells were seeded in 10-cm-diameter dishes and were transfected several days after plating with resistance test vector plasmid DNA and the envelope expression vector. […] HIV capsid protein (p24) levels in the harvested cell culture media were determined by an EIA method as described by the manufacturer (SAIC; Frederick, Md.). […] The inhibitory effect of the drug was determined using the following equation: […]
where RLUluc [drug] is the Relative Light Unit of luciferase activity in infected cells in the presence of drug, and RLUluc is the Relative Light Unit of luciferase activity in infected cells in the absence of drug. […] The percent luciferase stimulation is the negative of the % inhibition calculated using the formula above. […]

Assay [6] relates to RTV-I135T. Description: Phenotypic susceptibility assay, RTV-I135T. It counts as cell-based, HIV-1. As to conditions: site-directed I135T alone.
Text: as §1, §2, §3, §4
A resistance test vector containing a single mutation, I135T, (RTV-I135T) was constructed and tested in the phenotypic assay described earlier. The results were compared to those determined using a genetically defined resistance test vector that was wild type at position 135. We determined the pattern of phenotypic susceptibility to the NNRTIs, delavirdine, nevirapine and efavirenz, in RTV-I135T.

With `CC(C)Nc1cccnc1N1CCN(C(=O)c2cc3cc(NS(C)(=O)=O)ccc3[nH]2)CC1` [delavirdine], the “drug-dependent stimulation of viral replication” value (from here on “drug-dependent stimulation”) is recorded as approximately 35% in assay [1]; “no drug-dependent stimulation” in assay [2]; “no drug-dependent stimulation” in assay [3]; 190% in assay [4]; “no drug-dependent stimulation” in assay [6]. Moreover, the “reductions in susceptibility compared to wild type control RTV” value (“reductions … to wild type control RTV” for short) in assay [1] is recorded as 2.7 fold; in assay [2] it was 198 fold; in assay [3], 2 fold; in assay [6], “no reductions”. In addition, in assay [4], the reductions in susceptibility turned out to be 27 fold. Also, the decrease in susceptibility in assay [5] is given as more than 250 fold.

On to `O=C1Nc2ccc(Cl)cc2[C@@](C#CC2CC2)(C(F)(F)F)O1` [efavirenz], for which the “drug-dependent stimulation” value in assay [1] was approximately 30%; in assay [2], “no drug-dependent stimulation”; in assay [3] it was “no drug-dependent stimulation”; in assay [4] it was 180%; in assay [6] it was “no drug-dependent stimulation”. Also, the “reductions … to wild type control RTV” value is listed as 2 fold in assay [1], 76 fold in assay [2], 2 fold in assay [3] and “no reductions” in assay [6]. In assay [4], this compound registered a reductions in susceptibility of more than 450 fold. The same compound displayed a decrease in susceptibility in assay [5] of 5 fold.

Take `Cc1ccnc2c1NC(=O)c1cccnc1N2C1CC1` [nevirapine]: the “drug-dependent stimulation” value is recorded as approximately 40% in assay [1]; “no drug-dependent stimulation” in assay [2]; “no drug-dependent stimulation” in assay [3]; 200% in assay [4]; “no drug-dependent stimulation” in assay [6]. Further, the “reductions … to wild type control RTV” value in assay [1] is recorded as 2.8 fold; in assay [2], 233 fold; in assay [3], 2.5 fold; in assay [6] it was “no reductions”. The same compound had a reductions in susceptibility in assay [4] of more than 600 fold. In assay [5], this compound yielded a decrease in susceptibility of more than 600 fold.
